We go through twelve molecules from US12486290B2, “Isoindolinone and indazole compounds for the degradation of EGFR” (C4 THERAPEUTICS, INC., priority 2019, dated 2025).

SMILES strings stand for the structures.

Assay type in all cases: cell-based
Assay [1] addresses T1, EGFR T790M/L858R (NCI-H1975 cells) (Homo sapiens, UniProt P00533, L858R/T790M).
T1 construct: NCI-H1975 (harboring EGFR heterozygous T790M/L858R mutations); host or cells: NCI-H1975
The assay is described as follows: EGFR (L858R) degradation analysis, Total EGFR (L858R) HTRF, NCI-H1975 cells. The note with it: 6 hours. In outline:
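Cells (10000/well NCI-H1975 and NCI-H1975+CS, 1000/well NCI-H3255) treated with 11-point half-log titrations from 10 μM top, in duplicate, for 6 hours at 37° C., 5% CO2. Total EGFR (L858R) quantified by HTRF FRET; untreated cells as negative and cell-free wells as positive control.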
For orientation: Time-resolved FRET reads energy transfer from a long-lived donor to a nearby acceptor.

Assay [2] deals with T2, EGFR L858R (NCI-H3255 cells) (Homo sapiens, UniProt P00533, L858R).
T2 construct: NCI-H3255 (harboring EGFR heterozygous L858R mutation); host or cells: NCI-H3255
T2 sequence (P00533 25-1210 L858R): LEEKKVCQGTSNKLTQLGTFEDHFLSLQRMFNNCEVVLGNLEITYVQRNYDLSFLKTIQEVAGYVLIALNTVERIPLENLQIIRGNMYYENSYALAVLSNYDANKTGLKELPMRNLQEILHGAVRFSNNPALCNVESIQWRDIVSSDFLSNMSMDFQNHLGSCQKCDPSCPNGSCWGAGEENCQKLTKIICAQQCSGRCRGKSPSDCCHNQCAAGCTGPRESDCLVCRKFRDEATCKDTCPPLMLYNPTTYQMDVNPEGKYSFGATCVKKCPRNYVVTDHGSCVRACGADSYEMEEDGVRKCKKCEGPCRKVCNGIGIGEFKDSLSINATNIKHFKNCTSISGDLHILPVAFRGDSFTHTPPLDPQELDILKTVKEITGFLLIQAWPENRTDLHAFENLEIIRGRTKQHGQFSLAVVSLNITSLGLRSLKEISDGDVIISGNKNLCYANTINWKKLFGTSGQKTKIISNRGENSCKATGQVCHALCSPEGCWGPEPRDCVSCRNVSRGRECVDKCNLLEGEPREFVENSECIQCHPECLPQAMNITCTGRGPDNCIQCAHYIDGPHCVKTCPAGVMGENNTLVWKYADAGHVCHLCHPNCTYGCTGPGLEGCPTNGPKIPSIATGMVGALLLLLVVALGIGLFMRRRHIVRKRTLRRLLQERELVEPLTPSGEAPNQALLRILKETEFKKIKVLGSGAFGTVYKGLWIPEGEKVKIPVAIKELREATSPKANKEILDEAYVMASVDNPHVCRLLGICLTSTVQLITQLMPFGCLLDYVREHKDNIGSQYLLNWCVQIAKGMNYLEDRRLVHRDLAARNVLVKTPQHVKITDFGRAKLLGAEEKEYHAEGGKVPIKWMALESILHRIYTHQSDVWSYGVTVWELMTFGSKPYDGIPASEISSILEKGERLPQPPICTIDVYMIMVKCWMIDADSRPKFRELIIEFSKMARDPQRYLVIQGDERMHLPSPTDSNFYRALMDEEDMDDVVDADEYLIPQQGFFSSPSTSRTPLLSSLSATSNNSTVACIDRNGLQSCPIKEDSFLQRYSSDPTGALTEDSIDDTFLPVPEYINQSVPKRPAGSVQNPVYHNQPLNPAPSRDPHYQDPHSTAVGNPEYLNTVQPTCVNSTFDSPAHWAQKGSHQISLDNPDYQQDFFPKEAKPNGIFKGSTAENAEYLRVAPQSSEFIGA
Kind of assay: EGFR (L858R) degradation analysis, Total EGFR (L858R) HTRF, NCI-H3255 cells. Conditions: 6 hours. An excerpt:
(§1) NCI-H1975 (harboring EGFR heterozygous T790M/L858R mutations) and NCI-H3255 (harboring EGFR heterozygous L858R mutation) were purchased from ATCC and NCI, respectively. NCI-H1975+CS (harboring EGFR heterozygous T/790M/L858R/C797S mutations) was generated using CRISPR technology to introduce the additional C797S mutation by Horizon Discovery. RPMI 1640 no-phenol red medium and fetal bovine serum (FBS) were purchased from Gibco (Grand Island, NY, USA). Cell culture flasks and 384-well microplates were acquired from VWR (Radnor, PA, USA). Total EGFR (L858R) HTRF assay kits were purchased from Cisbio (Bedford, MA, USA).
(§2) Degradation of EGFR protein containing L858R mutation was determined based on quantification of FRET signal using Total EGFR (L858R) HTRF assay kit. Test compounds were added to the 384-well plate from a top concentration of 10 μM with 11 points, half log titration in duplicates. NCI-H1975, NCI-H1975+CS or NCI-H3255 cells were added into 384-well plates at a cell density of 10000, 10000 or 1000 cells per well, respectively. The plates were kept at 37° C. with 5% CO2 for 6 hours. Cells treated in the absence of the test compound were the negative control. Positive control was set by wells containing all reagents but no cells. FRET signal was acquired on EnVision™ Multilabel Reader (PerkinElmer, Santa Clara, CA, USA).

Assay [3] addresses T3, EGFR T790M/L858R/C797S (NCI-H1975+CS cells) (Homo sapiens, UniProt P00533, C797S/L858R/T790M).
T3 construct: NCI-H1975+CS (harboring EGFR heterozygous T/790M/L858R/C797S mutations) was generated using CRISPR technology; host or cells: NCI-H1975+CS (CRISPR-edited NCI-H1975)
Kind of assay: EGFR (L858R) degradation analysis, Total EGFR (L858R) HTRF, NCI-H1975+CS cells. The note with it: 6 hours, read-out: H1975 C797S clone EGFR DC50.
Source text: as §1, §2

T1 sequence (P00533 25-1210 T790M/L858R): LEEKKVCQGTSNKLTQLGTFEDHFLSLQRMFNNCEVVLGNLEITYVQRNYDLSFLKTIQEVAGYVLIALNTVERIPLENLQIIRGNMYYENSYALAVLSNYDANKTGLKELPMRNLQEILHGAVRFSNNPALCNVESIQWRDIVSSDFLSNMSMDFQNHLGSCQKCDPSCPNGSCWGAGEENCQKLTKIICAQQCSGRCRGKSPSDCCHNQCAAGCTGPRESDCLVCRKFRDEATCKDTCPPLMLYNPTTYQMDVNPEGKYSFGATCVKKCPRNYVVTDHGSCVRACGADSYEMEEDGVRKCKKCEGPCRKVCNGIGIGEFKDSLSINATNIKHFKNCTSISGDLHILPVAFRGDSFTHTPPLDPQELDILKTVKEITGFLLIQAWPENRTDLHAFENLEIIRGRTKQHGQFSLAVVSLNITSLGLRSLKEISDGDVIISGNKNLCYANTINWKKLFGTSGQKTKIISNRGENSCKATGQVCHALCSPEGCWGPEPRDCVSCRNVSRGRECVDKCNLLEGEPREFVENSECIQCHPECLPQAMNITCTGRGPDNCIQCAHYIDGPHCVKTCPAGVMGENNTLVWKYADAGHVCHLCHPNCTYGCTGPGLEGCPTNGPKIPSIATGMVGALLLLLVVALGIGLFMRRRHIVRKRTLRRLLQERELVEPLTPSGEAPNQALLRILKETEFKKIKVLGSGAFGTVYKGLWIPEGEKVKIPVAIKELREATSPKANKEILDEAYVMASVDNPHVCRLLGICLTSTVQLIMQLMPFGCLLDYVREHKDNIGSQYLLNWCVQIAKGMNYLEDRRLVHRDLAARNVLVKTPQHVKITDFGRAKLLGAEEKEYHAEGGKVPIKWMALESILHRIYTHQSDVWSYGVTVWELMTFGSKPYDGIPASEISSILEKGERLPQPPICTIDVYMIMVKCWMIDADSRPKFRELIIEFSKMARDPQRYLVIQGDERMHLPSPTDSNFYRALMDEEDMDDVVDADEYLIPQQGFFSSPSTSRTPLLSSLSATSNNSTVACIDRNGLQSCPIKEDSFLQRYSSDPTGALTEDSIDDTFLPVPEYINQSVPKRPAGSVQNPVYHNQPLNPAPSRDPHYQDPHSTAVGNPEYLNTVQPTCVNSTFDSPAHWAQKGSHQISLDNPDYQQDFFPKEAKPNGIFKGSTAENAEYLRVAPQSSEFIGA
T3 sequence (P00533 25-1210 T790M/C797S/L858R): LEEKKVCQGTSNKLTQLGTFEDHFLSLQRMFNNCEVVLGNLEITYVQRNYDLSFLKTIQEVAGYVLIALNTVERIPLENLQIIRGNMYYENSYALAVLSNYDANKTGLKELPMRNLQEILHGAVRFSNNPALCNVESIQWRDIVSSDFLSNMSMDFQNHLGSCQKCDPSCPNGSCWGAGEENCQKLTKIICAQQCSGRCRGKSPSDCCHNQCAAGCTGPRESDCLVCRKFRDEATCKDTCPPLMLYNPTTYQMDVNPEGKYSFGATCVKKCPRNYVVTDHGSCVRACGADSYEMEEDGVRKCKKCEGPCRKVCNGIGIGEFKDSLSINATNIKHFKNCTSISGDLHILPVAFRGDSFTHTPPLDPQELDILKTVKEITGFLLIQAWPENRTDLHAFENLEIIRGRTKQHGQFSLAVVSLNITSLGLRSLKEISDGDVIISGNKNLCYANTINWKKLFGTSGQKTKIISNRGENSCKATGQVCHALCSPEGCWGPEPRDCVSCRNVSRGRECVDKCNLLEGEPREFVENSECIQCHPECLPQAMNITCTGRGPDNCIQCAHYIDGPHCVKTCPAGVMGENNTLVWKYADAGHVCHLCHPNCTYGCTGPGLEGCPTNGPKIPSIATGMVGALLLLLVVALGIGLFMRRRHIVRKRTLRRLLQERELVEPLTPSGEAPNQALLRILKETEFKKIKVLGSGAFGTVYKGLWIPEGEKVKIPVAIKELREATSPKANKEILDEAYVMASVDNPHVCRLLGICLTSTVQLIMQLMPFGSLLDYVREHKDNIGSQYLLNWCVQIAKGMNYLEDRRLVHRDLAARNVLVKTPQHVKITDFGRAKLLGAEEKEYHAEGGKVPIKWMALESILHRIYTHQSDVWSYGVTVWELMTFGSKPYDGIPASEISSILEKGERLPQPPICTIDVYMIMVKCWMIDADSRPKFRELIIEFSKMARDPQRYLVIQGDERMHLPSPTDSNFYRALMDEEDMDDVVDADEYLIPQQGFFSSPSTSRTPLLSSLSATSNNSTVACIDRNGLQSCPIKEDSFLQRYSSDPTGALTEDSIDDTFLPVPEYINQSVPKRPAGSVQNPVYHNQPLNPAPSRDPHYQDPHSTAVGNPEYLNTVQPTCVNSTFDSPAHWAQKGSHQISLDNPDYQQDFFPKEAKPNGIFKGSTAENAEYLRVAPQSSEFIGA

A word on the DC50: it is the concentration giving 50% degradation. Turning to `O=C1CC[C@H](Nc2ccc(C3CCN(CC(=O)N4CC5(C4)CN(c4ccc(-c6cc(F)c7c(c6)C(=O)N(C(C(=O)Nc6nccs6)c6ncn8c6CCC8)C7)cc4)C5)CC3)c(F)c2)C(=O)N1` (stereo partly drawn) [Compound 48, 2-(6,7-dihydro-5H-pyrrolo[1,2-c]imidazol-1-yl)-2-[6-[4-[2-[2-[4-[4-[[(3S)-2,6-dioxo-3-piperidyl]amino]-2-fluoro-phenyl]-1-piperidyl]acetyl]-2,6-diazaspiro[3.3]heptan-6-yl]phenyl]-4-fluoro-1-oxo-isoindolin-2-yl]-N-thiazol-2-yl-acetamide], the DC50 amounted to 28 nM in assay [1], 7 nM in assay [2] and 11 nM in assay [3].
On to `O=C1CCC(Nc2ccc(C3CCN(CC(=O)N4CCC(NC(=O)c5ccc(C#Cc6cc(F)c7c(c6)C(=O)N(C(C(=O)Nc6nccs6)c6ncn8c6CCC8)C7)cn5)CC4)CC3)cc2)C(=O)N1` (racemic) [Compound 1, 5-[2-[7-Fluoro-3-oxo-2-[(1RS)-1-(6,7-dihydro-5H-pyrrolo[1,2-c]imidazol-1-yl)-2-oxo-2-(thiazol-2-ylamino)ethyl]isoindolin-5-yl]ethynyl]-N-[1-[2-[4-[4-[[(3RS)-2,6-dioxo-3-piperidyl]amino]phenyl]-1-piperidyl]acetyl]-4-piperidyl]pyridine-2-carboxamide], for which the half-maximal degradation concentration (DC50) is 6 nM in assay [1], 8 nM in assay [2] and 17 nM in assay [3].
Take `O=C1CC[C@H](Nc2ccc(C3CCN(CC(=O)N4CCN(c5ccc(-c6cc(F)c7c(c6)C(=O)N(C(C(=O)Nc6nccs6)c6ncn8c6C[C@@H](F)C8)C7)cc5)CC4)CC3)c(F)c2)C(=O)N1` (stereo partly drawn) [Compound 44, 2-[6-[4-[4-[2-[4-[4-[[(3S)-2,6-dioxo-3-piperidyl]amino]-2-fluoro-phenyl]-1-piperidyl]acetyl]piperazin-1-yl]phenyl]-4-fluoro-1-oxo-isoindolin-2-yl]-2-[(6R)-6-fluoro-6,7-dihydro-5H-pyrrolo[1,2-c]imidazol-1-yl]-N-thiazol-2-yl-acetamide]: the DC50 turned out to be 22 nM in assay [1], 6 nM in assay [2] and 12 nM in assay [3].
For the molecule `O=C1CC[C@@H](Nc2ccc(C3CCN(CC(=O)N4CCC(c5ccc(-c6cc(F)c7c(c6)C(=O)N(C(C(=O)Nc6nccs6)c6ncn8c6CCC8)C7)cc5)CC4)CC3)c(F)c2)C(=O)N1` (stereo partly drawn) [Compound 24, 2-(6,7-dihydro-5H-pyrrolo[1,2-c]imidazol-1-yl)-2-(6-(4-(1-(2-(4-(4-(((R)-2,6-dioxopiperidin-3-yl)amino)-2-fluorophenyl)piperidin-1-yl)acetyl)piperidin-4-yl)phenyl)-4-fluoro-1-oxoisoindolin-2-yl)-N-(thiazol-2-yl)acetamide], the figures for the 50% degradation concentration (DC50) in assay [1], in assay [2] and in assay [3] were 70 nM, 6 nM and 24 nM, respectively.
For `O=C1CCC(Nc2ccc(C3CCN(CC(=O)N4CCN(c5ccc(-c6cc(F)c7c(c6)C(=O)N(C(C(=O)Nc6nccs6)c6ncn8c6CCC8)C7)cc5)CC4)CC3)c(C(F)F)c2)C(=O)N1` (centres unmarked) [Compound 15, 2-[6-[4-[4-[2-[4-[2-(difluoromethyl)-4-[(2,6-dioxo-3-piperidyl)amino]phenyl]-1-piperidyl]acetyl]piperazin-1-yl]phenyl]-4-fluoro-1-oxo-isoindolin-2-yl]-2-(6,7-dihydro-5H-pyrrolo[1,2-c]imidazol-1-yl)-N-thiazol-2-yl-acetamide], in that order: 34 nM, 6 nM and 10 nM.
For the molecule `O=C1CCC(Nc2ccc(C3CCN(CC(=O)N4CCN(c5ccc(-c6cc(F)c7c(c6)C(=O)N(C(C(=O)Nc6nccs6)c6ncn8c6CCC8)C7)cc5)CC4)CC3)c(F)c2)C(=O)N1` (centres unmarked) [Compound 12, 2-(6,7-dihydro-5H-pyrrolo[1,2-c]imidazol-1-yl)-2-[6-[4-[4-[2-[4-[4-[(2,6-dioxo-3-piperidyl)amino]-2-fluoro-phenyl]-1-piperidyl]acetyl]piperazin-1-yl]phenyl]-4-fluoro-1-oxo-isoindolin-2-yl]-N-thiazol-2-yl-acetamide], the DC50 in assay [1] came out at 39 nM; in assay [2], 11 nM.
For `O=C1CC[C@H](Nc2ccc(C3CCN(CC(=O)N4CCC(Cc5ccc(-c6cc(F)c7c(c6)C(=O)N(C(C(=O)Nc6nccs6)c6ncn8c6CCC8)C7)cc5)CC4)CC3)c(F)c2)C(=O)N1` (stereo partly drawn) [Compound 60, 2-(6,7-dihydro-5H-pyrrolo[1,2-c]imidazol-1-yl)-2-[6-[4-[[1-[2-[4-[4-[[(3S)-2,6-dioxo-3-piperidyl]amino]-2-fluoro-phenyl]-1-piperidyl]acetyl]-4-piperidyl]methyl]phenyl]-4-fluoro-1-oxo-isoindolin-2-yl]-N-thiazol-2-yl-acetamide], in that order: 52 nM and 28 nM.
For `Cn1nc(N2CCC(=O)NC2=O)c2ccc(C3CCN(CC(=O)N4CCN(c5ccc(-c6cc(F)c7c(c6)C(=O)N(C(C(=O)Nc6nccs6)c6ncn8c6C[C@@H](F)C8)C7)cc5)CC4)CC3)cc21` (stereo partly drawn) [Compound 45, 2-[6-[4-[4-[2-[4-[3-(2,4-dioxohexahydropyrimidin-1-yl)-1-methyl-indazol-6-yl]-1-piperidyl]acetyl]piperazin-1-yl]phenyl]-4-fluoro-1-oxo-isoindolin-2-yl]-2-[(6R)-6-fluoro-6,7-dihydro-5H-pyrrolo[1,2-c]imidazol-1-yl]-N-thiazol-2-yl-acetamide], the half-maximal degradation concentration (DC50) in assay [1] was determined as 14 nM; in assay [2] it was 16 nM.
For `O=C1CCC(Nc2ccc(C3CCN(C(=O)CN4CCN(c5ccc(-c6cc(F)c7c(c6)C(=O)N(C(C(=O)Nc6nccs6)c6ncn8c6CCC8)C7)cc5)CC4)CC3)cc2)C(=O)N1` (centres unmarked) [Compound 10, 2-(6,7-dihydro-5H-pyrrolo[1,2-c]imidazol-1-yl)-2-(6-(4-(4-(2-(4-(4-((2,6-dioxopiperidin-3-yl)amino)phenyl)piperidin-1-yl)-2-oxoethyl)piperazin-1-yl)phenyl)-4-fluoro-1-oxoisoindolin-2-yl)-N-(thiazol-2-yl)acetamide], the half-maximal degradation concentration (DC50) in assay [1] was 21 nM; in assay [2], 19 nM.
With `Cn1nc(N2CCC(=O)NC2=O)c2ccc(C3CCN(CC(=O)N4CC5(C4)CN(c4ccc(-c6cc(F)c7c(c6)C(=O)N(C(C(=O)Nc6nccs6)c6ncn8c6CCC8)C7)cc4)C5)CC3)cc21` (centres unmarked) [Compound 49, 2-(6,7-dihydro-5H-pyrrolo[1,2-c]imidazol-1-yl)-2-[6-[4-[2-[2-[4-[3-(2,4-dioxohexahydropyrimidin-1-yl)-1-methyl-indazol-6-yl]-1-piperidyl]acetyl]-2,6-diazaspiro[3.3]heptan-6-yl]phenyl]-4-fluoro-1-oxo-isoindolin-2-yl]-N-thiazol-2-yl-acetamide], the results for the half-maximal degradation concentration (DC50) in assay [1] and in assay [2] were 18 nM and 10 nM, respectively.
As for `O=C1CC[C@H](Nc2ccc(C3CCN(CC(=O)N4CC5(C4)CN(c4ccc(-c6cc(F)c7c(c6)C(=O)N(C(C(=O)Nc6ccccn6)c6ncn8c6CCC8)C7)cc4)C5)CC3)c(F)c2)C(=O)N1` (stereo partly drawn) [Compound 53, 2-(6,7-dihydro-5H-pyrrolo[1,2-c]imidazol-1-yl)-2-[6-[4-[2-[2-[4-[4-[[(3S)-2,6-dioxo-3-piperidyl]amino]-2-fluoro-phenyl]-1-piperidyl]acetyl]-2,6-diazaspiro[3.3]heptan-6-yl]phenyl]-4-fluoro-1-oxo-isoindolin-2-yl]-N-(2-pyridyl)acetamide], the figures for the DC50 in assay [1] and in assay [2] were 64 nM and 37 nM, respectively.
On to `O=C1CC[C@H](Nc2ccc(C3CCN(CC(=O)N4CC5(CCN(c6ccc(-c7cc(F)c8c(c7)C(=O)N(C(C(=O)Nc7nccs7)c7ncn9c7CCC9)C8)cc6)CC5)C4)CC3)c(F)c2)C(=O)N1` (stereo partly drawn) [Compound 46, 2-(6,7-dihydro-5H-pyrrolo[1,2-c]imidazol-1-yl)-2-(6-(4-(2-(2-(4-(4-(((S)-2,6-dioxopiperidin-3-yl)amino)-2-fluorophenyl)piperidin-1-yl)acetyl)-2,7-diazaspiro[3.5]nonan-7-yl)phenyl)-4-fluoro-1-oxoisoindolin-2-yl)-N-(thiazol-2-yl)acetamide], for which the DC50 in assay [1] and in assay [2] was 51 nM in each case.
